Patent publication US10689414B2 (Agios Pharmaceuticals, Inc., priority 2013, dated 2020)

System: U87MG cells
Experiment: Cellular assay, inhibition of 2-HG production in U87MG cells
Assay type: cell-based
Details: Homo sapiens, U-87 MG, 48 h
Experimental: Cells (HT1080 or U87MG) are grown in T125 flasks in DMEM containing 10% FBS, 1× penicillin/streptomycin and 500 ug/mL G418 (present in U87MG cells only). They are harvested by trypsin and seeded into 96 well white bottom plates at a density of 5000 cell/well in 100 ul/well in DMEM with 10% FBS. […] Cells are incubated overnight at 37° C. in 5% CO2. The next day test compounds are made up at 2× the final concentration and 100 ul are added to each cell well. The final concentration of DMSO is 0.2% and the DMSO control wells are plated in row G. The plates are then placed in the incubator for 48 hours. […] The cell plate is placed back in the incubator for another 24 hours. At 72 hours post compound addition, 10 mL/plate of Promega Cell Titer Glo reagent is thawed and mixed. The cell plate is removed from the incubator and allowed to equilibrate to room temperature. Then 100 ul of Promega Cell Titer Glo reagent is added to each well of media. The cell plate is then placed on an orbital shaker for 10 minutes and then allowed to sit at room temperature for 20 minutes. The plate is then read for luminescence with an integration time of 500 ms.

IC50 [nM] | Structure (SMILES)
< 100 | O=C(NC1CCC(F)(F)CC1)[C@H](c1ccccc1Cl)N(C(=O)[C@@H]1COC(=O)N1c1ncccn1)c1cccc(F)c1 [Compound 76, (S)—N—((S)-1-(2-Chlorophenyl)-2-((4,4-difluorocyclohexyl)amino)-2-oxoethyl)-N-(3-fluoro-phenyl)-2-oxo-3-(pyrimidin-2-yl)oxazolidine-4-carboxamide]
< 100 | N#Cc1ccnc(N2C(=O)OC[C@H]2C(=O)N(c2cccc(F)c2)[C@H](C(=O)NC2CC(F)(F)C2)c2ccccc2Cl)c1 [Compound 77, (S)—N—((S)-1-(2-Chlorophenyl)-2-(3,3-difluorocyclobutylamino)-2-oxoethyl)-3-(4-cyanopyri-din-2-yl)-N-(3-fluorophenyl)-2-oxooxazolidine-4-carboxamide]
< 100 | CN1C[C@@H](C(=O)N(c2cccc(F)c2)C(C(=O)NC2CC(F)(F)C2)c2ccccc2Cl)N(c2cc(C#N)ccn2)C1=O (stereo partly drawn) [Compound 79, (4S)—N-(1-(2-chlorophenyl)-2-((3,3-difluorocyclobutyl)amino)-2-oxoethyl)-3-(4-cyanopyridin-2-yl)-N-(3-fluorophenyl)-1-methyl-2-oxoimidazolidine-4-carboxamide]
< 100 | N#Cc1ccnc(N2C(=O)NC[C@H]2C(=O)N(c2cccc(F)c2)[C@H](C(=O)NC2CC(F)(F)C2)c2ccccc2Cl)c1 [Compound 80, (S)—N—((S)-1-(2-chlorophenyl)-2-(3,3-difluorocyclobutylamino)-2-oxoethyl)-3-(4-cyanopyridin-2-yl)-N-(3-fluorophenyl)-2-oxoimidazolidine-4-carboxamide]
< 100 | N#Cc1ccnc(N2C(=O)CC[C@H]2C(=O)N(c2cc(F)cc(F)c2)[C@H](C(=O)NC2CCC(F)(F)CC2)c2ccccc2Cl)c1 [Compound 81, (2S)—N-(1-(2-Chlorophenyl)-2-(4,4-difluorocyclohexylamino)-2-oxoethyl)-1-(4-cyanopyridin-2-yl)-N-(3,5-difluorophenyl)-5-oxopyrrolidine-2-carboxamide]
< 100 | N#Cc1ccnc(N2C(=O)CC[C@H]2C(=O)N(c2cccc(F)c2)[C@H](C(=O)NC2CC(F)(F)C2)c2ccccc2Cl)c1F [Compound 82, (S)—N—((S)-1-(2-Chlorophenyl)-2-((3,3-difluorocyclobutyl)amino)-2-oxoethyl)-1-(4-cyano-3-fluoropyridin-2-yl)-N-(3-fluorophenyl)-5-oxopyrrolidine-2-carboxamide]
< 100 | N#Cc1ccnc(N2C(=O)CC[C@H]2C(=O)N(c2cccc(F)c2)[C@H](C(=O)NC2CCC(F)(F)CC2)c2ccccc2Cl)c1F [Compound 83, (S)—N—((S)-1-(2-Chlorophenyl)-2-((4,4-difluorocyclohexyl)amino)-2-oxoethyl)-1-(4-cyano-3-fluoropyridin-2-yl)-N-(3-fluorophenyl)-5-oxopyrrolidine-2-carboxamide]
100 to 500 | N#Cc1ccnc(N2C(=O)CC[C@H]2C(=O)N(c2cccc(S(N)(=O)=O)c2)[C@H](C(=O)NC2CC(F)(F)C2)c2ccccc2Cl)c1 [Compound 84, (S)—N—((S)-1-(2-Chlorophenyl)-2-(3,3-difluorocyclobutylamino)-2-oxoethyl)-1-(4-cyanopyridin-2-yl)-5-oxo-N-(3-sulfamoylphenyl)pyrrolidine-2-carboxamide]
< 100 | N#Cc1ccnc(N2C(=O)CC[C@H]2C(=O)N(c2cccc(F)c2)[C@H](C(=O)NC2CCC(F)(F)CC2)c2ccccc2Cl)n1 [Compound 85, (S)—N—((S)-1-(2-Chlorophenyl)-2-((4,4-difluorocyclohexyl)amino)-2-oxoethyl)-1-(4-cyanopyrimidin-2-yl)-N-(3-fluorophenyl)-5-oxopyrrolidine-2-carboxamide]
< 100 | N#Cc1ccnc(N2C(=O)CC[C@H]2C(=O)N(c2cc(F)cc(F)c2)[C@H](C(=O)NC2CC(F)(F)C2)c2ccccc2Cl)n1 [Compound 86, (S)—N—((S)-1-(2-Chlorophenyl)-2-((3,3-difluorocyclobutyl)amino)-2-oxoethyl)-1-(4-cyanopyrimidin-2-yl)-N-(3,5-difluorophenyl)-5-oxopyrrolidine-2-carboxamide]
< 100 | N#Cc1ccnc(N2C(=O)CC[C@H]2C(=O)N(c2cc(F)cc(F)c2)[C@H](C(=O)NC2CCC(F)(F)CC2)c2ccccc2Cl)n1 [Compound 87, (S)—N—((S)-1-(2-Chlorophenyl)-2-((4,4-difluorocyclohexyl)amino)-2-oxoethyl)-1-(4-cyanopyrimidin-2-yl)-N-(3,5-difluorophenyl)-5-oxopyrrolidine-2-carboxamide]
< 100 | N#Cc1ccnc(N2C(=O)CC[C@H]2C(=O)N(c2cc(F)cc(F)c2)[C@H](C(=O)NC2CC(F)(F)C2)c2ccccc2Cl)c1F [Compound 88, (S)—N—((S)-1-(2-Chlorophenyl)-2-((3,3-difluorocyclobutyl)amino)-2-oxoethyl)-1-(4-cyano-3-fluoropyridin-2-yl)-N-(3,5-difluorophenyl)-5-oxopyrrolidine-2-carboxamide]
< 100 | CC(C)(C)OC(=O)N1CC(=O)N(c2cc(C#N)ccn2)[C@H](C(=O)N(c2cccc(F)c2)[C@H](C(=O)NC2CC(F)(F)C2)c2ccccc2Cl)C1 [Compound 89, (3S)-tert-Butyl 3-((1-(2-chlorophenyl)-2-((3,3-difluorocyclobutyl)amino)-2-oxoethyl)(3-fluorophenyl)carbamoyl)-4-(4-cyanopyridin-2-yl)-5-oxopiperazine-1-carboxylate]
< 100 | N#Cc1ccnc(N2C(=O)CC[C@H]2C(=O)N(c2cncc(F)c2)C(C(=O)NC2CC(F)(F)C2)c2ccccc2Cl)c1 (stereo partly drawn) [Compound 91]
< 100 | CC(=O)N1CC(=O)N(c2cc(C#N)ccn2)[C@H](C(=O)N(c2cccc(F)c2)[C@H](C(=O)NC2CC(F)(F)C2)c2ccccc2Cl)C1 [Compound 92, (S)-4-Acetyl-N—((S)-1-(2-chlorophenyl)-2-(3,3-difluorocyclobutylamino)-2-oxoethyl)-1-(4-cyanopyridin-2-yl)-N-(3-fluorophenyl)-6-oxopiperazine-2-carboxamide]
< 100 | CC(C)(C)OC(=O)N1CC(=O)N(c2nccc(C#N)n2)[C@H](C(=O)N(c2cc(F)cc(F)c2)[C@H](C(=O)NC2CCC(F)(F)CC2)c2ccccc2Cl)C1 [Compound 93, (S)-tert-Butyl 3-(((S)-1-(2-chlorophenyl)-2-((4,4-difluorocyclohexyl)amino)-2-oxoethyl)(3,5-difluorophenyl)carbamoyl)-4-(4-cyanopyrimidin-2-yl)-5-oxopiperazine-1-carboxylate]
< 100 | CCOC(=O)CN1C[C@@H](C(=O)N(c2cccc(F)c2)[C@H](C(=O)NC2CC(F)(F)C2)c2ccccc2Cl)N(c2cc(C#N)ccn2)C1=O [Compound 94, Ethyl 2-((4S)-4-((1-(2-chlorophenyl)-2-((3,3-difluorocyclobutyl)amino)-2-oxoethyl)(3-fluorophenyl)carbamoyl)-3-(4-cyanopyridin-2-yl)-2-oxoimidazolidin-1-yl)acetate]
< 100 | CS(=O)(=O)c1cccc(N(C(=O)[C@@H]2CCC(=O)N2c2cc(C#N)ccn2)C(C(=O)NC2CCC(F)(F)CC2)c2ccccc2Cl)c1 (stereo partly drawn) [Compound 95, (2S)—N-(1-(2-Chlorophenyl)-2-((4,4-difluorocyclohexyl)amino)-2-oxoethyl)-1-(4-cyanopyridin-2-yl)-N-(3-(methylsulfonyl)phenyl)-5-oxopyrrolidine-2-carboxamide]
